Active and inactive are the calls of the source. No cut-off for these calls is given here.

For test [1], the system named is Erythrocyte. Briefly: Stimulation of ceramide formation in human erythrocytes at 2 uM after 48 hrs by FITC-labeled anticeramide antibody method. The format is functional, cell-based.
Test [2] has as its system Erythrocyte. The test can be described thus: Induction of eryptosis in human erythrocytes assessed as cell membrane scrambling at 1 uM after 48 hrs by annexin V staining-based FACS analysis in nominal absence of extracellular Ca2+. It counts as functional. (In general: In flow cytometry, cells or beads pass a laser one at a time.)
Test [3] has as its system Erythrocyte. Briefly: Induction of eryptosis in human erythrocytes assessed as cell membrane scrambling at 1 uM after 48 hrs by annexin V staining-based FACS analysis in presence of extracellular Ca2+. The format is functional.
The test system of test [4] is Erythrocyte. Briefly: Hemolysis in human erythrocytes assessed as release of hemoglobin at 1 uM after 48 hrs by spectrophotometry. It counts as functional, cell-based.
In test [5] the test system is Erythrocyte. Briefly: Induction of eryptosis in human erythrocytes assessed as phosphatidylserine exposure up to 2 uM after 48 hrs by annexin V staining-based FACS analysis. The format is functional, cell-based.
For test [6], the system named is Erythrocyte. Briefly: Induction of eryptosis in human erythrocytes assessed as phosphatidylserine exposure at 1 uM after 48 hrs by annexin V staining-based FACS analysis. It counts as functional, cell-based.
Test [7] deals with Erythrocyte. The test can be described thus: Induction of eryptosis in human erythrocytes assessed as reduction in cell volume measuring forward scatter up to 2 uM after 48 hrs by FACS analysis. It counts as functional, cell-based.
The subject of test [8] is Erythrocyte. Briefly: Hemolysis in human erythrocytes assessed as release of hemoglobin up to 2 uM after 48 hrs by spectrophotometry. It counts as functional, cell-based.
The test system of test [9] is Erythrocyte. The test can be described thus: Induction of eryptosis in human erythrocytes assessed as increase in cytosolic Ca2+ at 0.5 uM after 48 hrs by Fluo-3/AM-based FACS analysis. The format is functional, cell-based.
Test [10] relates to Erythrocyte. The test can be described thus: Induction of eryptosis in human erythrocytes assessed as increase in cytosolic Ca2+ up to 2 uM after 48 hrs by Fluo-3/AM-based FACS analysis. It counts as functional, cell-based.
The subject of test [11] is Erythrocyte. The test can be described thus: Induction of eryptosis in human erythrocytes assessed as reduction in cell volume measuring forward scatter at 1.5 uM after 48 hrs by FACS analysis. It counts as functional, cell-based.

Regarding `CC1=CC(=O)c2c(O)cccc2C1=O`, the result in test [1], in test [3], in test [4], in [5], in test [6] and in test [7] was Active. Moreover, the outcome in test [8], in test [9], in test [10] and in test [11] was Active. Besides, the result in [2] was inactive.

(Values after ChEMBL document CHEMBL2163202, “Enhanced Ca2+ entry, ceramide formation, and apoptotic death of erythrocytes triggered by plumbagin” (J Nat Prod, 2012).)
